Test [1] deals with platelet-rich human plasma; platelet aggregation induced by ADP. The test is described as follows: Platelet aggregation (platelet-rich human plasma) induced in vitro by ADP. The test is classed as cell-based. The conditions noted are these: platelet-rich human plasma, 300,000 platelets/cm^2, 2.0 μg/ml of ADP; read-out: IC50, inductor: ADP. Here is the method: (§1) Study of the Effects on the Platelet Aggregation (Platelet-Rich Human Plasma) Induced in Vitro By: ADP, Collagen or Arachidonic Acid Blood samples from volunteer donors are treated and adjusted to a platelet concentration of 300,000/cm^2 and then incubated with different concentrations of the test products. Aggregation is induced by 2.0 μg/ml of ADP or by 10.0 μg/ml of collagen. The measurements are made using a Bryston-type aggregometer--or CHRONOLOG. The changes in optical density are noted and the values of the concentrations which cause a 50% inhibition are calculated.

In test [2] the test system is platelet-rich human plasma; platelet aggregation induced by collagen. Nature of the test: Platelet aggregation (platelet-rich human plasma) induced in vitro by collagen. The conditions noted are these: platelet-rich human plasma, 300,000 platelets/cm^2, 10.0 μg/ml of collagen; read-out: IC50, inductor: collagen. Format: cell-based. As for the experimental part: as §1

A further test has as its system platelet aggregation. The test is described as follows: In vitro inhibition of platelet aggregation (BORN's method), induced by collagen or ADP. The test is classed as cell-based, animal and human. Conditions: 100 μg/ml, aspirin as reference. Here is the method: In vitro inhibition of platelet aggregation The inhibition of platelet aggregation is measured in vitro by BORN's method (Nature 4832, 927 (1962)), the aggregation being induced by collagen or ADP. […] The aggregation can also be induced in vitro by serotonin, arachidonic acid and norepinephrine. Furthermore, this inhibitory effect was observed on platelet-rich plasma (PRP) of animal origin and human origin.

Each structure is given as a SMILES string. Converted amounts (≈) assume the structure as drawn. Counter-ions that a name gives are not always drawn.

`C=CCON=C1CC(=NOCC=C)c2ccccc2-c2ccccc21` [Example 1, 5,7 -Bis(Allyloxyimino)-6,7-Dihydro-(5H)-Dibenzo[a,c]Cycloheptene]: the IC50 – broadly, the concentration at which inhibition is half-maximal – in test [1] is 650 µg/mL (≈ 1960 µM); in test [2] it was 800 µg/mL (≈ 2410 µM).

With `CON=C1CC(=NOC)c2ccccc2-c2ccccc21` [Example 2, 5,7-Bis(Methoxyimino)-6,7-Dihydro-(5H)-Dibenzo[a,c]Cycloheptene], the IC50 in test [2] turned out to be 800 µg/mL (≈ 2850 µM).

For `CCON=C1CC(=NOCC)c2ccccc2-c2ccccc21` [Example 3, 5,7-Bis(Ethoxyimino)-6,7-Dihydro-(5H)-Dibenzo[a,c]Cycloheptene], the values for the IC50 in test [1] and in test [2] were 620 µg/mL (≈ 2010 µM) and 500 µg/mL (≈ 1620 µM), respectively.

`CCCON=C1CC(=NOCCC)c2ccccc2-c2ccccc21` [Example 4, 5,7-Bis(n-Propoxyimino)-6,7-Dihydro-(5H)-Dibenzo[a,c]Cycloheptene]: the IC50 in test [1] amounted to 600 µg/mL (≈ 1780 µM); in test [2], 420 µg/mL (≈ 1250 µM).

`N#CCCCON=C1CC(=NOCCCC#N)c2ccccc2-c2ccccc21` [Example 5, 5,7-Bis(3-Cyanopropoxyimino)-6,7-Dihydro-(5H)-Dibenzo[a,c]Cycloheptene]: the figures for the IC50 in test [1] and in test [2] were 420 µg/mL (≈ 1090 µM) and 650 µg/mL (≈ 1680 µM), respectively.

`CC(C)(C)ON=C1CC(=NOC(C)(C)C)c2ccccc2-c2ccccc21` [Example 6, 5,7-Bis(Tert.-Butoxyimino)-6,7-Dihydro-(5H)-Dibenzo[a,c]Cycloheptene]: the IC50 in test [1] is 460 µg/mL (≈ 1260 µM); in test [2], 600 µg/mL (≈ 1650 µM).

`c1ccc2c(c1)C(=NOCC1CCCCC1)CC(=NOCC1CCCCC1)c1ccccc1-2` [Example 7, 5,7-Bis(Cyclohexylmethoxyimino)-6,7-Dihydro-(5H)-Dibenzo[a,c]Cycloheptene]: the IC50 in test [1] and in test [2] was 600 µg/mL (≈ 1350 µM) each time.

Take `c1ccc(CON=C2CC(=NOCc3ccccc3)c3ccccc3-c3ccccc32)cc1` [Example 8, 5,7-Bis(Benzyloxyimino)-6,7-Dihydro-(5H)-Dibenzo[a,c]Cycloheptene]: the results for the IC50 in test [1] and in test [2] were 650 µg/mL (≈ 1500 µM) and 800 µg/mL (≈ 1850 µM), respectively.

In the case of `c1ccc(CCON=C2CC(=NOCCc3ccccc3)c3ccccc3-c3ccccc32)cc1` [Example 9, 5,7-Bis(2-Phenylethoxyimino)-6,7-Dihydro-(5H)-Dibenzo[a,c]Cycloheptene], the IC50 in test [1] and in test [2] was 600 µg/mL (≈ 1300 µM) each time.

As to `CCOC(=O)CON=C1CC(=NOCC(=O)OCC)c2ccccc2-c2ccccc21` [Example 10, 5,7-Bis(Ethoxycarbonylmethoxyimino)-6,7-Dihydro-(5H)-Dibenzo[a,c]Cycloheptene], the IC50 in test [1] stood at 400 µg/mL (≈ 942 µM); in test [2], 650 µg/mL (≈ 1530 µM).

Turning to `CC(C)(C)OC(=O)CON=C1CC(=NOCC(=O)OC(C)(C)C)c2ccccc2-c2ccccc21` [Example 11, 5,7-Bis(Tert.-Butoxycarbonylmethoxyimino)-6,7-Dihydro-(5H)-Dibenzo[a,c]Cycloheptene], the IC50 in test [1] is 200 µg/mL (≈ 416 µM); in test [2] it was 320 µg/mL (≈ 666 µM).

For the compound `CCOC(=O)CCCON=C1CC(=NOCCCC(=O)OCC)c2ccccc2-c2ccccc21` [Example 12, 5,7-Bis(Ethoxycarbonylpropoxyimino)-6,7-Dihydro-(5H)-Dibenzo[a,c]Cycloheptene], the half-inhibitory concentration (IC50) in test [1] amounted to 450 µg/mL (≈ 936 µM); in test [2] it was 670 µg/mL (≈ 1390 µM).

Regarding `O=C(O)CON=C1CC(=NOCC(=O)O)c2ccccc2-c2ccccc21` [Example 13, 5,7-Bis(Hydroxycarbonylmethoxyimino)-6,7-Dihydro-(5H)-Dibenzo[a,c]Cycloheptene], the IC50 is 400 µg/mL (≈ 1090 µM) in test [1] and 450 µg/mL (≈ 1220 µM) in test [2].

With `Cl.Cl.c1ccc2c(c1)C(=NOCCN1CCCCC1)CC(=NOCCN1CCCCC1)c1ccccc1-2` [Example 20, 5,7-Bis(Piperidin-1-ylethoxyimino)-6,7-Dihydro-(5H)-Dibenzo[a,c]Cycloheptene Dihydrochloride], the IC50 in test [1] was determined as 80 µg/mL; in test [2] it was 120 µg/mL. For the same compound, in the test on platelet aggregation, the “inhibition of platelet aggregation compared with aspirin” value (from here on “inhibition … compared with aspirin”) is on record as “comparable or even superior to aspirin”.

In the case of `CCN(CC)CCON=C1c2ccccc2C(=NOCCN(CC)CC)C1c1ccccc1` (stereo not shown) [Example 21, 1,3-Bis(2-Diethylaminoethoxyimino)-2-Phenyl-(1H)-Indene-(2H) Dihydrochloride], the 50% inhibitory concentration (IC50) in test [1] was found to be 24 µg/mL; in test [2], 40 µg/mL. In the test with platelet aggregation, the “inhibition … compared with aspirin” value is recorded as “comparable or even superior to aspirin”.

`c1ccc2c(c1)C(=NOCCN1CCOCC1)CC2=NOCCN1CCOCC1` [Example 23, 1,3-Bis(2-Morpholinoethoxyimino)-(1H)-Indene-(2H) Dihydrochloride]: the values for the half-maximal inhibitory concentration (IC50) in test [1] and in test [2] were 420 µg/mL and 350 µg/mL, respectively.

With `c1ccc(C2C(=NOCCN3CCOCC3)c3ccccc3C2=NOCCN2CCOCC2)cc1` (stereo not shown) [Example 24, 1,3-Bis(2-Morpholinoethoxyimino)-2-Phenyl-(1H)-Indene-(2H) Dihydrochloride], the IC50 was 210 µg/mL in test [1] and 340 µg/mL in test [2]. The “inhibition … compared with aspirin” value with platelet aggregation is reported as “comparable or even superior to aspirin”.

Take `c1ccc(C2C(=NOCCN3CCCCC3)c3ccccc3C2=NOCCN2CCCCC2)cc1` (stereo not shown) [Example 25, 1,3-Bis(2-Piperidin-1-ylethoxyimino)-2-Phenyl-(1H)-Indene-(2H) Dihydrochloride]: the half-inhibitory concentration (IC50) amounted to 20 µg/mL in test [1] and 38 µg/mL in test [2]. In the test with platelet aggregation, the “inhibition … compared with aspirin” value was “comparable or even superior to aspirin”.

Take `COc1ccc(C2C(=NOCCN3CCCCC3)c3ccccc3C2=NOCCN2CCCCC2)cc1` (stereo not shown) [Example 26, 1,3-Bis(2-Piperidin-1-ylethoxyimino-2-(4-Methoxyphenyl-(1H)-Indene-(2H) Dihydrochloride]: the results for the IC50 in test [1] and in test [2] were 18 µg/mL and 24 µg/mL, respectively. In addition, in the test with platelet aggregation, the “inhibition … compared with aspirin” value is “comparable or even superior to aspirin”.

Take `CCN(CC)CCON=C1c2ccccc2C(=NOCCN(CC)CC)C1c1ccc(Cl)cc1` (stereo not shown) [Example 27, 1,3-Bis(2-Diethylaminoethoxyimino)-2-(4-Chlorophenyl)-(1H)-Indene-(2H) Dihydrochloride]: the values for the IC50 in test [1] and in test [2] were 28 µg/mL and 40 µg/mL, respectively. Also, the “inhibition … compared with aspirin” value in the test with platelet aggregation is on record as “comparable or even superior to aspirin”.

Turning to `CCN(CC)CCON=C1c2ccccc2C(=NOCCN(CC)CC)C1c1ccc(C)cc1` (stereo not shown) [Example 28, 1,3-Bis(2-Diethylaminoethoxyimino)-2-(4-Methylphenyl)-(1H)-Indene-(2H) Dihydrochloride], the values for the IC50 in test [1] and in test [2] were 40 µg/mL and 62 µg/mL, respectively. In the test with platelet aggregation, the “inhibition … compared with aspirin” value is recorded as “comparable or even superior to aspirin”.

Consider `CCN(CC)CCON=C1c2ccccc2C(=NOCCN(CC)CC)C1c1ccc2c(c1)OCO2` (stereo not shown) [Example 29, 1,3-Bis(2-Diethylaminoethoxyimino)-2-(3,4-Methylenedioxyphenyl)-(1H)-Indene-(2H) Dihydochloride], for which the IC50 in test [1] came out at 100 µg/mL (≈ 202 µM); in test [2] it was 110 µg/mL (≈ 222 µM). In addition, the “inhibition … compared with aspirin” value with platelet aggregation is recorded as “comparable or even superior to aspirin”.

Regarding `CCOC(=O)CON=C1c2ccccc2C(=NOCC(=O)OCC)C1c1ccccc1` (stereo not shown) [Example 30, 1,3-Bis(Ethoxycarbonylmethoxyimino)-2-Phenyl-(1H)-Indene-(2H)], the half-inhibitory concentration (IC50) in test [1] was determined as 210 µg/mL (≈ 495 µM); in test [2], 150 µg/mL (≈ 353 µM). For the same compound, the “inhibition … compared with aspirin” value with platelet aggregation is on record as “comparable or even superior to aspirin”.

On to `O=C(O)CON=C1c2ccccc2C(=NOCC(=O)O)C1c1ccccc1` (stereo not shown) [Example 31, 1,3-Bis(Hydroxycarbonylmethoxyimino)-2-Phenyl-(1H)-Indene-(2H)], for which the concentration for half-maximal inhibition (IC50) in test [2] was determined as 250 µg/mL (≈ 679 µM).

As for `CCN(CC)CCON=C1c2ccccc2-c2ccccc2C(=NOCCN(CC)CC)C1c1ccccc1.Cl.Cl` (stereo not shown) [Example 32, 5,7-Bis(2-Diethylaminoethoxyimino)-6-Phenyl-6,7-Dihydro-(5H)-Dibenzo[a,c]Cycloheptene Dihydrochloride], the figures for the IC50 in test [1] and in test [2] were 18 µg/mL and 20 µg/mL, respectively. The “inhibition … compared with aspirin” value in the test on platelet aggregation was “comparable or even superior to aspirin”.

With `CCN(CC)CCON=C1c2ccccc2-c2ccccc2C(=NOCCN(CC)CC)C1c1ccc(F)cc1.Cl.Cl` (stereo not shown) [Example 33, 5,7-Bis(2-Diethylaminoethoxyimino)-6-(4-Fluorophenyl)-6,7-Dihydro-(5H)-Dibenzo[a,c]Cycloheptene Dihydrochloride], the 50% inhibitory concentration (IC50) came to 22 µg/mL in test [1] and 12 µg/mL in test [2]. Besides, the “inhibition … compared with aspirin” value with platelet aggregation was “comparable or even superior to aspirin”.

For the compound `CCN(CC)CCON=C1c2ccccc2-c2ccccc2C(=NOCCN(CC)CC)C1c1ccc(Cl)cc1.Cl.Cl` (stereo not shown) [Example 34, 5,7-Bis(2-Diethylaminoethoxyimino)-6-(4-Chlorophenyl)-6,7-Dihydro-(5H)-Dibenzo[a,c]Cycloheptene Dihydrochloride], the IC50 in test [1] was 24 µg/mL; in test [2] it was 40 µg/mL. Further, in the test with platelet aggregation, the “inhibition … compared with aspirin” value is listed as “comparable or even superior to aspirin”.

For `CCN(CC)CCON=C1c2ccccc2-c2ccccc2C(=NOCCN(CC)CC)C1c1ccc(OC)cc1.Cl.Cl` (stereo not shown) [Example 35, 5,7-Bis(Diethylaminoethoxyimino)-6-(4-Methoxyphenyl)-6,7-Dihydro-(5H)-Dibenzo[a,c]Cycloheptene Dihydrochloride], the IC50 was found to be 16 µg/mL in test [1] and 25 µg/mL in test [2]. The “inhibition … compared with aspirin” value in the test on platelet aggregation is recorded as “comparable or even superior to aspirin”.

Values taken from patent US4804684A, “Symmetrical O-substituted dioximes of benzo-fused β-diketocyclo-alkylenes, the processes for their preparation and their application as drugs” (Panmedica S.A., priority 1986, dated 1989).
